Patent publication US20140275094A1, “METHOD FOR TREATING PULMONARY ARTERIAL HYPERTENSION IN A PATIENT NOT HAVING IDIOPATHIC PULMONARY FIBROSIS” (GILEAD SCIENCES, INC., priority 2012, published 2014)
pIC50, pKi: −log10 of the molar value.

What was measured:
[1] = target: T1, breast cancer resistance protein (BCRP) (Homo sapiens, UniProt Q9UNQ0); experiment: Inhibition of BCRP, transfected MDCKII cells; type: cell-based; conditions: human, transfected MDCKII cells
T1 construct: expressed in transfected cells; host or cells: MDCKII
T1 sequence (Q9UNQ0 1-655): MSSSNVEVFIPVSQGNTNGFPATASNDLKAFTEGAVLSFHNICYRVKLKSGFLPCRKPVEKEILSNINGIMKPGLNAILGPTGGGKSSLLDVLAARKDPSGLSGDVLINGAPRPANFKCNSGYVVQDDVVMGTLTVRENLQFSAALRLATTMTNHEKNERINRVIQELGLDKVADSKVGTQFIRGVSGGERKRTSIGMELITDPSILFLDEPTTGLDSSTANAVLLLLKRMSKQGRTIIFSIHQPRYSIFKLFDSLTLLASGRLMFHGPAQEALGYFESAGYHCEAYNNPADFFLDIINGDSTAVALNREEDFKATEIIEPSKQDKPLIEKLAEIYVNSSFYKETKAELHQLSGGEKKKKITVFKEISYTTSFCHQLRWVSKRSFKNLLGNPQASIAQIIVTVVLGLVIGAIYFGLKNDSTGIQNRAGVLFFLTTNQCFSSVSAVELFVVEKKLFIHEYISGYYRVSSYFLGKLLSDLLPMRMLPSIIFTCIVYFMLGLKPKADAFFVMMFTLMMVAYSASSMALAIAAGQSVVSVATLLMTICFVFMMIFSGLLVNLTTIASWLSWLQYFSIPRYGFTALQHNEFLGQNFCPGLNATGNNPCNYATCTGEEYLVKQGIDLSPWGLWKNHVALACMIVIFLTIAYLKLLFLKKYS
Description: (§1) Inhibition constants (IC50) were measured for human bile salt export pump (BSEP), sodium taurocholate cotransporting polypeptide (NTCP), multidrug resistance protein 2 (MRP2), P-glycoprotein (Pgp), breast cancer resistance protein (BCRP), organic anion-transporting polypeptide 1B1 (OATP1B1), and OATP1B3 in transfected cell-lines. Known inhibitors were used as positive controls.

[2] = MGPS disproportionality analysis of FDA AERS spontaneous reports of hepatic events; design: species or system human; key to EBGM: ratio of observed to expected reports (independence assumption); conditions: for Count / EBGM: FDA AERS, 18 months post approval; for EB05: lower bound of 90% confidence interval of EBGM
Description: A disproportionality analysis was performed for ambrisentan and bosentan using information from the FDA Adverse Events Reporting System (AERS) spontaneous reporting database. […] The value of the EBGM reflects the ratio of the number of observed reports of a drug-adverse event combination with the number expected under an assumption of independence between the drugs and events in the database. […] In order to reduce the occurrence of false positives due to age group or gender influence, the safety reports were stratified by subject age group and gender. For each drug, the AERS data were analyzed for the 18-month period following the respective approval dates for ambrisentan and bosentan: 15 Jun. 2007 to 14 Dec. 2008 for ambrisentan and 21 Nov. 2001 to 20 May 2003 for bosentan. […] This threshold is generally accepted as a signal of disproportional reporting (Szarfman, et al., “Use of screening algorithms and computer systems to efficiently signal higher-than-expected combinations of drugs and events in the US FDA's spontaneous reports database.” Drug Safety 25, 381-392 (2002)). The comparator dataset in the calculations for ambrisentan and bosentan included data for all other drugs in the AERS database.

[3] = target: T2, multidrug resistance protein 2 (MRP2) (Homo sapiens, UniProt Q92887); experiment: Inhibition of hepatic transporter MRP2, transfected Sf9 cells; type: cell-based
T2 construct: expressed in transfected cells; host or cells: Spodoptera frugiperda (Sf9) ovarian cells
T2 sequence (Q92887 whole entry): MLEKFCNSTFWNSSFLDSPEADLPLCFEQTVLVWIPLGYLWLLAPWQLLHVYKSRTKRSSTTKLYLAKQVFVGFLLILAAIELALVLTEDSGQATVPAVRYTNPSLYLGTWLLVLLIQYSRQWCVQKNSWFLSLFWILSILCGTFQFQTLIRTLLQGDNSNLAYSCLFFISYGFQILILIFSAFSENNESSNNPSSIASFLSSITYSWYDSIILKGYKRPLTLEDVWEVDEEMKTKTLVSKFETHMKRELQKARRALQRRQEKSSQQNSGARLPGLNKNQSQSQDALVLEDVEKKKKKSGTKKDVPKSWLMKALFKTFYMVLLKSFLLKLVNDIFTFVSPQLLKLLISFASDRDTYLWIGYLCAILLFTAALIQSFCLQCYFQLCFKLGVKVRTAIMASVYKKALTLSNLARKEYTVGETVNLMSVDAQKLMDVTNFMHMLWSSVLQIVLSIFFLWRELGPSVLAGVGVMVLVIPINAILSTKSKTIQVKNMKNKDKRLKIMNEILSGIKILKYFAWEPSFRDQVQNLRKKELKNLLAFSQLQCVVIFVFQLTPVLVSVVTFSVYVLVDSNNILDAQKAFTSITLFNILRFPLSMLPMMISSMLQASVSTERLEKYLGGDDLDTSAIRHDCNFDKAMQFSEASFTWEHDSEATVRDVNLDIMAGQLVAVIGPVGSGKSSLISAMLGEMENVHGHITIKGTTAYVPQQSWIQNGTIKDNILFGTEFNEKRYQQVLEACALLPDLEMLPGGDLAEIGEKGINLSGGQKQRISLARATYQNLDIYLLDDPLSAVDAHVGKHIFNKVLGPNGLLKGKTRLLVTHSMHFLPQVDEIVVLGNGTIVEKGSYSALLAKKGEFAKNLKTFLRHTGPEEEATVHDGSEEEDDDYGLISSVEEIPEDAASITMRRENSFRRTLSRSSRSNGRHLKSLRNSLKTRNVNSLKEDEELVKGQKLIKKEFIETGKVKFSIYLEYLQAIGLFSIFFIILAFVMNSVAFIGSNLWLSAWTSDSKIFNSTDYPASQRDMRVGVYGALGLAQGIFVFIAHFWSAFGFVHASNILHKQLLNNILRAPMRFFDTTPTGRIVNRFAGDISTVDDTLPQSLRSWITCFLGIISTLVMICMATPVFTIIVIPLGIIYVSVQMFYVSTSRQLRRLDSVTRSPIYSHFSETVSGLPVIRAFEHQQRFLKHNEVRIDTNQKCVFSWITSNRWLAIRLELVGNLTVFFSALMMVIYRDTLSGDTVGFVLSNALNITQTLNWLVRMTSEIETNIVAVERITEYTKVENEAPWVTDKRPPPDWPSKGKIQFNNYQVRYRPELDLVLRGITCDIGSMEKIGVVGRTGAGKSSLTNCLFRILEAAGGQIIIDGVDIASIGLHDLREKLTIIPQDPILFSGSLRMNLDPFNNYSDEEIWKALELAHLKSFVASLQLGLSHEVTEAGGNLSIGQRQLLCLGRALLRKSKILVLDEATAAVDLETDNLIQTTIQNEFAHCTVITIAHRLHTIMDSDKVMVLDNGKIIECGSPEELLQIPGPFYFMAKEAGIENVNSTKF
Description: as §1

[4] = test system: patients with IPF, with or without pulmonary hypertension (WHO Group 3); experiment: Randomized controlled study in idiopathic pulmonary fibrosis; type: in vivo
ETA receptor = target: T3, ETA receptor (Homo sapiens, UniProt P25101); conditions: read-out: affinity for the ETA receptor; cited from earlier work
T3 sequence (P25101 21-427): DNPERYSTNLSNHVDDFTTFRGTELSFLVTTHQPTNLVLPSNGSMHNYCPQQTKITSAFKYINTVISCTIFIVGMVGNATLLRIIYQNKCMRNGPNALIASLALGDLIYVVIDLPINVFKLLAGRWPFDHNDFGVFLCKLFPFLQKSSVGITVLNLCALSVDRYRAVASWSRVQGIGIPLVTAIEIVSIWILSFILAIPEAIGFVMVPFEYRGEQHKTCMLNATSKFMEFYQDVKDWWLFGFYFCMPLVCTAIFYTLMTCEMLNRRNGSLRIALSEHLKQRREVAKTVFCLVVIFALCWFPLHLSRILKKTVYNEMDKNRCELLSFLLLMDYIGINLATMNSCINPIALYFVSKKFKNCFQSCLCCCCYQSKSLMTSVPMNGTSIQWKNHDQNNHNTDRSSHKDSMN

[5] = Blood alkaline phosphate increased
[6] = Blood bilirubin unconjugated increased

## COc1ccccc1Oc1c(NS(=O)(=O)c2ccc(C(C)(C)C)cc2)nc(-c2ncccn2)nc1OCCO [Bosentan]
[1]
  pIC50: < 4.00
[2]; ALT increased
  Count: 57
  EBGM: 11.57
[2]; AST increased
  Count: 60
  EBGM: 12.52
[2]; Ascites
  Count: 8
  EBGM: 3.60
[2]; Bilirubin conjugated increased
  Count: 5
  EBGM: 13.91
[2]; [5]
  Count: 46
  EBGM: 18.79
[2]; Blood bilirubin increased
  Count: 37
  EBGM: 18.75
[2]; [6]
  Count: 2
  EBGM: 3.28
[2]; Hepatic congestion
  Count: 5
  EBGM: 13.18
[2]; Hepatic encephalopathy
  Count: 1
  EBGM: 1.00
[2]; Hepatic enzyme increased
  Count: 0
[2]; Hepatic failure
  Count: 3
  EBGM: 1.07
[2]; Hepatic function abnormal
  Count: 2
  EBGM: 0.91
[2]; Hepatic infarction
  Count: 1
  EBGM: 1.44
[2]; Hepatic necrosis
  Count: 1
  EBGM: 0.94
[2]; Hepatic steatosis
  Count: 0
[2]; Hepatitis acute
  Count: 1
  EBGM: 1.04
[2]; Hepatitis
  Count: 5
  EBGM: 1.63
[2]; Hepatomegaly
  Count: 1
  EBGM: 0.79
[2]; Hepatosplenomegaly
  Count: 2
  EBGM: 2.09
[2]; INR increased
  Count: 9
  EBGM: 3.08
[2]; Liver disorder
  Count: 1
  EBGM: 0.56
[2]; Liver function test abnormal
  Count: 38
  EBGM: 9.59
[2]; Prothrombin time prolonged
  Count: 2
  EBGM: 1.22
[2]; Spider naevus
  Count: 1
  EBGM: 1.46
[2]; Transaminases increased
  Count: 5
  EBGM: 3.58
[2]; blood alkaline phosphate increased
  EB05: 14.6
[2]; liver function test abnormal
  EB05: 6.9
[3]
  pIC50: < 4.00

## COC(c1ccccc1)(c1ccccc1)[C@H](Oc1nc(C)cc(C)n1)C(=O)O [Ambrisentan, (25)-2-[(4,6-dimethylpyrimidin-2-yl)oxy]-3-methoxy-3,3-diphenylpropanoic acid]
[2]; ALT increased
  Count: 3
  EBGM: 1.55
[2]; AST increased
  Count: 3
  EBGM: 1.63
[2]; Ascites
  Count: 2
  EBGM: 1.80
[2]; Bilirubin conjugated increased
  Count: 0
[2]; [5]
  Count: 1
  EBGM: 0.86
[2]; Blood bilirubin increased
  Count: 0
[2]; [6]
  Count: 0
[2]; Hepatic congestion
  Count: 0
[2]; Hepatic encephalopathy
  Count: 0
[2]; Hepatic enzyme increased
  Count: 3
  EBGM: 1.67
[2]; Hepatic failure
  Count: 0
[2]; Hepatic function abnormal
  Count: 0
[2]; Hepatic infarction
  Count: 0
[2]; Hepatic necrosis
  Count: 0
[2]; Hepatic steatosis
  Count: 1
  EBGM: 1.06
[2]; Hepatitis acute
  Count: 0
[2]; Hepatitis
  Count: 1
  EBGM: 0.89
[2]; Hepatomegaly
  Count: 0
[2]; Hepatosplenomegaly
  Count: 0
[2]; INR increased
  Count: 1
  EBGM: 0.78
[2]; Liver disorder
  Count: 2
  EBGM: 1.43
[2]; Liver function test abnormal
  Count: 10
  EBGM: 6.11
[2]; Prothrombin time prolonged
  Count: 1
  EBGM: 1.29
[2]; Spider naevus
  Count: 0
[2]; Transaminases increased
  Count: 2
  EBGM: 1.96
[2]; liver function test abnormal
  EB05: 3.5
[4]; ambrisentan n=329, placebo 4%
  patients who died: 8%
[4]; ambrisentan n=329, placebo 6%
  patients with a respiratory hospitalization: 13%
[4]; ambrisentan n=329, placebo 12%
  patients with a decrease in FVC/DLCO: 17%
[4]; study terminated after 34 weeks
  risk of disease progression or death versus placebo: greater risk of disease progression or death
ETA receptor
  pKi: ~10.92
